Patent US20230064983A1 (priority 2020, published 2023)

Tests used:
[1] = target: T1, EGFR with insertion SVD between D770 and N771 (mutEGFR D770_N771insSVD) (Homo sapiens, UniProt P00533, DUP768-770); assay: Exon20-Mutant-EGFR(D770_N771insSVD) kinase assay (TR-FRET); assay type: biochemical; conditions: 2 mM ATP, Table 2
T1 construct: amino acids R669 to A1210; made in house; host or cells: Sf9 insect cells (baculovirus)

Ba/F3-EGFR-WT cells = Ba/F3-EGFR-WT cells (Homo sapiens, UniProt P00533); assay: Ba/F3 cell survival assay, wild type EGFR; assay type: cell-based; conditions: Cell Titer-Glo, 48 h, with 10 ng/mL EGF; Table 4; read-out: BA/F3 (wild type) IC50
[2] = target: Ba/F3-EGFR-E746_A750del cells (Homo sapiens, UniProt P00533, DEL746-750, cells depend on it); assay: Ba/F3 cell survival assay, EGFR E746_A750del; assay type: cell-based; conditions: classical activating and rare EGFR mutations; Table 7; read-out: BA/F3 (EGFR E746_A750del) IC50
[3] = target: Ba/F3-EGFR-D770_N771insSVD cells (Homo sapiens, UniProt P00533, DUP768-770, cells depend on it); assay: Ba/F3 cell survival assay, EGFR D770_N771insSVD; assay type: cell-based; conditions: Cell Titer-Glo, 48 h, without IL-3; Table 4; read-out: BA/F3 (insSVD) IC50
Ba/F3-EGFR L861Q cells = Ba/F3-EGFR L861Q cells (Homo sapiens, UniProt P00533, L861Q, cells depend on it); assay: Ba/F3 cell survival assay, EGFR L861Q; assay type: cell-based; conditions: classical activating and rare EGFR mutations; Table 7; read-out: BA/F3 (EGFR L861Q) IC50
[4] = target: Ba/F3-ERBB2-A775_G776insYVMA cells (Homo sapiens, UniProt P04626, DUP772-775, cells depend on it); assay: Ba/F3 cell survival assay, ERBB2 A775_G776insYVMA; assay type: cell-based; conditions: Table 9; read-out: BA/F3 (ERBB2 A775_G776 insYVMA) IC50
[5] = target: Ba/F3-EGFR-L858R C797S cells (Homo sapiens, UniProt P00533, C797S/L858R, cells depend on it); assay: Ba/F3 cell survival assay, EGFR L858R C797S; assay type: cell-based; conditions: aquired resistance space; Table 8; read-out: BA/F3 (EGFR L858R C797S) IC50
Chain of Ba/F3-EGFR-L858R C797S cells (P00533 whole entry C797S/L858R): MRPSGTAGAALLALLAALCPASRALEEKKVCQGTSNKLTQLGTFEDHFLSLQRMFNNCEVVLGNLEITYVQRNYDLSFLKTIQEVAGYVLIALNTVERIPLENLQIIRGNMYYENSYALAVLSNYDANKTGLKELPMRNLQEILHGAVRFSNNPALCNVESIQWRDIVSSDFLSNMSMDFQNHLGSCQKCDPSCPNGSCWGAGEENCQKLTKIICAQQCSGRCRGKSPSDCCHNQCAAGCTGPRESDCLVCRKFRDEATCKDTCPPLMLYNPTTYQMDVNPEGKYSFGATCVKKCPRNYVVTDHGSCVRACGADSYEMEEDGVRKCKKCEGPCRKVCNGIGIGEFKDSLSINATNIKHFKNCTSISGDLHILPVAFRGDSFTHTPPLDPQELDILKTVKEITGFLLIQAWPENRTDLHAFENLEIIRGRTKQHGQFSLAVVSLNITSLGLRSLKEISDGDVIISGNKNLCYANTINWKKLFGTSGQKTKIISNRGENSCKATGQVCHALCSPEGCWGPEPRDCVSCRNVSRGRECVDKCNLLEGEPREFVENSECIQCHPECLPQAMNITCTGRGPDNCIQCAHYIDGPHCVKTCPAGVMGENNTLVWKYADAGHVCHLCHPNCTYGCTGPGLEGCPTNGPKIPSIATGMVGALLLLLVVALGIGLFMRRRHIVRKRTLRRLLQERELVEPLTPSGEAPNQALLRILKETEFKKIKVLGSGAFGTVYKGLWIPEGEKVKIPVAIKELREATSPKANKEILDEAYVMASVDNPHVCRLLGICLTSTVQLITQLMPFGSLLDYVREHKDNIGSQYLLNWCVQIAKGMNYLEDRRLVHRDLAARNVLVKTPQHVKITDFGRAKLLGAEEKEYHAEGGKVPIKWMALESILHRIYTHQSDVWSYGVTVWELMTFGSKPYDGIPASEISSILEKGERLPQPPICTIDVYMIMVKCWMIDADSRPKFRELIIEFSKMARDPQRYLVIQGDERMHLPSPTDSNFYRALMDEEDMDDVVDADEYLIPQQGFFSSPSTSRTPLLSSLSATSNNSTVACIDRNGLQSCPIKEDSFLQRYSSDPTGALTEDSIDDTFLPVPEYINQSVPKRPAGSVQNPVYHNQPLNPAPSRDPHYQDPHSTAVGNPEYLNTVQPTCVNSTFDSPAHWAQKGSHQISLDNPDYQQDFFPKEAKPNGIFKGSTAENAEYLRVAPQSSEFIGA

T1 sequence (P00533 other isoform, or with tags, fused parts or gaps DUP768-770): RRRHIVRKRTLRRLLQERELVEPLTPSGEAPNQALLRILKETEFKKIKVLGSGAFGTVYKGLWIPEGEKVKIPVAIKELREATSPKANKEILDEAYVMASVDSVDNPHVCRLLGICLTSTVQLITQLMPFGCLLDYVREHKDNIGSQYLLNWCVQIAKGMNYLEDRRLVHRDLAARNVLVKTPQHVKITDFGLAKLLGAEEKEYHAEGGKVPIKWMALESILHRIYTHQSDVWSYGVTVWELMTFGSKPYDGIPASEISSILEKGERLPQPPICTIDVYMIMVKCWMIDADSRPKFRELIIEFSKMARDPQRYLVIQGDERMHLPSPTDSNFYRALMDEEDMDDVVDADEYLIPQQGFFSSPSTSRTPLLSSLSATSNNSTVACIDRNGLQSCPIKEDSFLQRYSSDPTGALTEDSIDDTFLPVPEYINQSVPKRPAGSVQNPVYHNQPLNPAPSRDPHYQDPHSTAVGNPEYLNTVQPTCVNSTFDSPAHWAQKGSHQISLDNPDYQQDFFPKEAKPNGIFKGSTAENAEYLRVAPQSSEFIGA
Chain of Ba/F3-EGFR-WT cells (P00533 whole entry, looked up, stated change not applied): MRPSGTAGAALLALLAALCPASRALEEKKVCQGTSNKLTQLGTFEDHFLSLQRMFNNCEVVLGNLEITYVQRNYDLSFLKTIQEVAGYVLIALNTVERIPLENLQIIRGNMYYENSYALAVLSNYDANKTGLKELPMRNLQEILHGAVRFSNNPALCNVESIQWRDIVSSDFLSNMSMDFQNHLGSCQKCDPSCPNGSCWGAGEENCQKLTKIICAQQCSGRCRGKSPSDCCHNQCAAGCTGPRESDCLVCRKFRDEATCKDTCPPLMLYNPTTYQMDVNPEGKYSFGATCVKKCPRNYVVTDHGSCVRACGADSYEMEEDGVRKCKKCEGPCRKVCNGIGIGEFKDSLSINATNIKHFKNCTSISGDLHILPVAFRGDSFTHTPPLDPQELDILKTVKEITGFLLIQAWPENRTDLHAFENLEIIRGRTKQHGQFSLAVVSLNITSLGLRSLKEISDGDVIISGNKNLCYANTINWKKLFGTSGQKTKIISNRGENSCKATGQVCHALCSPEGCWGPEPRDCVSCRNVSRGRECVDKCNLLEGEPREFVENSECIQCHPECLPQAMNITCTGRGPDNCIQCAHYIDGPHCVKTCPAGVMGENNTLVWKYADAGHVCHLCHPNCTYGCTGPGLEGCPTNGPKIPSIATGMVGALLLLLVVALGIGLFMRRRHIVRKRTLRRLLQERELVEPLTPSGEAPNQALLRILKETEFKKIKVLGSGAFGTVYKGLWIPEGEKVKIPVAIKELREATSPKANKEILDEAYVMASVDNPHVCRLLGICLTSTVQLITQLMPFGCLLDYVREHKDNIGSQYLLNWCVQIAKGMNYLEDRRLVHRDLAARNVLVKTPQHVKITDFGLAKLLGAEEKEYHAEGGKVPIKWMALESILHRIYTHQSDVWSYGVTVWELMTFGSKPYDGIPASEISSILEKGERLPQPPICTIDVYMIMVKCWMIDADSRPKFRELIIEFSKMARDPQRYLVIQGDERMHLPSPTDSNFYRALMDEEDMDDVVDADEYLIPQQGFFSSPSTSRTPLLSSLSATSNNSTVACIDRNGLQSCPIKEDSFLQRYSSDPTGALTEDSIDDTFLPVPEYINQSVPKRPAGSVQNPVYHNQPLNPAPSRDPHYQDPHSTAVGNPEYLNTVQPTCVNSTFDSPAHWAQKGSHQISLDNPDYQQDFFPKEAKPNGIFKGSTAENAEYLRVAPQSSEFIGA
Chain of Ba/F3-EGFR L861Q cells (P00533 whole entry L861Q): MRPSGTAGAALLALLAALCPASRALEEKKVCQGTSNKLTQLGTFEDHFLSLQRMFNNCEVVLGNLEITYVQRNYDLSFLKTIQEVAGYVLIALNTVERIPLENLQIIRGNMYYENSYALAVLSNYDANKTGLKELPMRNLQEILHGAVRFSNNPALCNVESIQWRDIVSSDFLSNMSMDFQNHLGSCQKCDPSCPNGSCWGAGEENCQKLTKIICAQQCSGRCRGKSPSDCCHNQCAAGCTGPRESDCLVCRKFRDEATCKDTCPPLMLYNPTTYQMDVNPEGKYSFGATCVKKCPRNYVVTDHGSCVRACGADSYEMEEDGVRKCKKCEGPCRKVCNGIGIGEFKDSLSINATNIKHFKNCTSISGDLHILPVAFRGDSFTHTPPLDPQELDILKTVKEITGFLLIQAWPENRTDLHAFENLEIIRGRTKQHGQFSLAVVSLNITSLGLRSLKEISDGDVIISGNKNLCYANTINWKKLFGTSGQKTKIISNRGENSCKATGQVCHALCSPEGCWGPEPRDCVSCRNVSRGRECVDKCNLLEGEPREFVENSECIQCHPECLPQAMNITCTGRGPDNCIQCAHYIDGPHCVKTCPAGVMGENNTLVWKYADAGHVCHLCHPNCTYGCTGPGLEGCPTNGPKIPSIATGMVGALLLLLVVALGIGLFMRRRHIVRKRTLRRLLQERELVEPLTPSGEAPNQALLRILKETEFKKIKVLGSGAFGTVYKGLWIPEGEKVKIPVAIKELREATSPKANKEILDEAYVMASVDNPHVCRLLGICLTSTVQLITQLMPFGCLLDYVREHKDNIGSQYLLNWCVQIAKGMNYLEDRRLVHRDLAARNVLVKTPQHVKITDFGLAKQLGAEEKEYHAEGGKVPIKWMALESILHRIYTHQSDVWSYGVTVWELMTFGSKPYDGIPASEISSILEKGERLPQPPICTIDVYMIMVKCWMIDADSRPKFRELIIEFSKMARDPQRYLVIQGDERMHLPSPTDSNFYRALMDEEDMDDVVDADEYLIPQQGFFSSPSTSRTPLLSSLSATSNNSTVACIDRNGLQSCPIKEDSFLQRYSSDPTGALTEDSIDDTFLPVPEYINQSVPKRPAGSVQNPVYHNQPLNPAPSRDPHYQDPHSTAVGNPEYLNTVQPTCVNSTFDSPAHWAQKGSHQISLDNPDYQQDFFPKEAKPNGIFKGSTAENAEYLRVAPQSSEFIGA

SMILES	mutEGFR (D770_N771insSVD) kinase assay IC50 [1]	GI50 (Ba/F3-EGFR-WT cells)	GI50 [2]	GI50 [3]	GI50 (Ba/F3-EGFR L861Q cells)	GI50 [4]	GI50 [5]
COc1c(Cl)cccc1Nc1c(-c2ccncc2OCCC(C)OC)[nH]c2c1C(=O)N[C@H](C)C2 (single isomer, unassigned) [Example 121]	0.000188 µM	0.267 µM	0.000887 µM	0.00881 µM	0.0112 µM	0.0128 µM	0.00107 µM
COc1c(Cl)cccc1Nc1c(-c2ccncc2OCCC2CCCCO2)[nH]c2c1C(=O)N[C@H](C)C2 (single isomer, unassigned) [Example 87]	0.000535 µM	0.421 µM	0.005 µM	0.015 µM	0.0334 µM	0.0162 µM	0.00138 µM
COCC(C)Oc1cnccc1-c1[nH]c2c(c1Nc1cccc(Cl)c1OC)C(=O)N[C@@H]1CCC[C@H]21 (single isomer, unassigned) [Example 51]	0.000305 µM	0.412 µM	0.00105 µM	0.0136 µM	0.0149 µM	0.0152 µM	0.00132 µM

Now from value to compound, other results behind:

mutEGFR (D770_N771insSVD) kinase assay IC50 [1]	SMILES	GI50 (Ba/F3-EGFR-WT cells)	GI50 [2]	GI50 [3]	GI50 (Ba/F3-EGFR L861Q cells)	GI50 [4]	GI50 [5]
0.000201 µM	COc1c(Cl)cccc1Nc1c(-c2ccncc2OC[C@@H]2CCCO2)[nH]c2c1C(=O)NC1(CC1)C2 [Example 113, 3′-(3-chloro-2-methoxyanilino)-2′-(3-{[(2S)-oxolan-2-yl]methoxy}pyridin-4-yl)-1′,7′-dihydrospiro[cyclopropane-1,6′-pyrrolo[3,2-c]pyridin]-4′(5′H)-one]	0.849 µM	0.000989 µM	0.0237 µM	0.045 µM	0.0222 µM	0.00507 µM
0.000252 µM	Cc1c(Cl)cccc1Nc1c(-c2ccncc2OCC2COCCO2)[nH]c2c1C(=O)NCC2C (single isomer, unassigned) [Example 67, 3-(3-chloro-2-methyl-anilino)-2-[3-(1,4-dioxan-2-ylmethoxy)-4-pyridyl]-7-methyl-1,5,6,7-tetrahydropyrrolo[3,2-c]pyridin-4-one]	1.15 µM	0.00141 µM	0.0271 µM	0.0536 µM	0.0292 µM	0.00249 µM
0.000175 µM	COc1c(Cl)cccc1Nc1c(-c2ccncc2OCC2COCCO2)[nH]c2c1C(=O)NCC2C (single isomer, unassigned) [Example 34, 3-(3-chloro-2-methoxy-anilino)-2-[3-(1,4-dioxan-2-ylmethoxy)-4-pyridyl]-7-methyl-1,5,6,7-tetrahydropyrrolo[3,2-c]pyridin-4-one]	0.424 µM	0.00119 µM	0.0202 µM	0.0318 µM	0.0331 µM	0.00307 µM
